Entries after “also recorded” stand apart in the source; their conditions may differ.
Assays:
HL-60 cells [1] = assay: Ultrasound-induced cytolysis of HL-60 cells, Coulter counter analysis; format: cell-based; conditions: HL-60 cells
Method: Cells: HL-60 myeloid leukemia cells (American Type Culture Collection) were grown in a suspension of RPMI 1640 medium (GIBCO, Gaithersburg, Md.) containing 10% calf serum. The population of HL-60 cells doubled every 23±1 hr (hour ±SEM) when incubated at 37° C. in a CO2 (5%) containing atmosphere. Cells were harvested, re-suspended in fresh RPMI medium and kept at 25° C. until the start of the experiment (typically less than 1 hr). […] The fraction of intact cells before and after ultrasound was determined using a Coulter multisizer (model IIe) connected to a sampling stand (model IIa). The number of intact cells was determined by counting the total number of particles under the bell shaped curve (e.g., FIG. 1a) before and following sonolysis. The cytolysis percentage was determined by subtracting the number of intact cells following sonolysis from the number of intact cells before sonolysis. This value was divided by the number of intact cells before sonolysis and multiplied by 100 to obtain the cytolysis percentage value.
The temperature of the coupling water was 25° C.
We have confirmed the validity of this technique for studying the effects of sonolysis in our ultrasound system by the trypan blue exclusion assay. The mean size of HL-60 cells was determined from the Coulter counter results prior to sonolysis and was approximately 650 μm3 (FIG. 1a) which equates to a mean cell diameter of […].
42 kHz sonolysis was conducted in a similar way but using a Branson ultrasound bath (model number 1510). […] At 42 kHz, a transducer was used to decrease the power of the bath to 50% of its original value. The temperature of the coupling water at all frequencies was 25° C.
The percentage of cytolysis of HL-60 cells was determined by measurement of the cell size distribution using a Coulter multisizer. This method correlates well with percentage cytolysis measured using the Trypan blue exclusion assay immediately following sonolysis and is explained in detail elsewhere (Miyoshi, N. et al. 2003). […] This immediate ultrasound induced cytolysis (i.e., % cytolysis) is represented in FIGS. 2, 10-12 at a concentration of zero.
42 kHz sonolysis was conducted in a similar way but using a Branson ultrasound bath (model number […]). […] At 42 kHz, a transducer was used to decrease the power of the bath to 50% of its original value. The temperature of the coupling water at all frequencies was 25° C.
The percentage of cytolysis of HL-60 cells was determined by measurement of the cell size distribution using a Coulter multisizer. This method correlates well with percentage cytolysis measured using the Trypan blue exclusion assay immediately following sonolysis and is explained in detail elsewhere (Miyoshi, N. et al. 2003). […] This immediate ultrasound induced cytolysis (i.e., % cytolysis) is represented at a concentration of zero.

HL-60 cells [2] = assay: Reproduction assay of HL-60 cells following sonolysis; format: cell-based; conditions: sonolysis, 5 seconds, 10 W; varying concentrations
Method: Cells were allowed to reproduce for 24 hours. Reproduction fraction ±SD (where n=6 to 8) is calculated by dividing the number of cells counted following 24 hours of reproduction by the number of cells counted at the start of incubation.
Control data points were run in triplicate with a standard deviation of less than 10%. Sonolysis points represent an average of six separate cell suspensions, with a standard deviation of less than 10%.
The reproduction ratio is the number of cells present one or two days post treatment divided by the number of cells present on the treatment day.
Reproduction Assay: for FIG. 5, a reproduction assay was conducted over a period of 10 days to determine the long term viability of cells following ultrasound treatment in the presence of either HGP or OGP at concentrations where 100% protection from cytolysis occurred. The long term viability of treated cell suspensions was compared to the long term viability of untreated control cell suspensions held under exactly the same conditions (FIG. 5). Immediately following sonolysis, a 100 μl aliquot of the 1 ml treated (or control) samples was used for Coulter counter analysis in order to confirm that 100% of the cells had survived the ultrasound treatment. Viability of the cells was determined by using a very small volume (approx. 20 μl) of suspension for trypan blue staining. The remaining ≈0.9 ml cell suspensions were diluted to 3 ml with fresh medium, centrifuged, washed with fresh medium, and finally re-suspended in fresh medium (2 ml). 100 μl of this new 2 ml of cells suspended in fresh medium was then used to determine the cell concentration. This cell concentration is defined as ‘the cell concentration at Day 0 after ultrasound treatment’ (Ci). Cell suspensions were then kept at 37° C. in a 5% CO2 incubator for a total of 10 days.
Over the 10 day period, cells had to be spun down occasionally and re-suspended in fresh medium to replenish the nutrients necessary for a healthy cell population. 100 μl aliquots of the original cell suspension were used to measure the cell concentration both before (Cfinal) and following (Cinitial) re-suspension in fresh medium. This procedure, although necessary, results in a slight underestimation in the expected number of cells on any given day, when compared to the original cell concentration, Ci. To account for this small, but significant underestimation, we calculated the actual number of cells that would have been observed had we not been periodically extracting small aliquots for the detection of cell numbers by the Coulter counter. This was done by calculating a ‘reproduction ratio’, determined by dividing Cfinal by Cinitial that was measured one or two days earlier and comparing this ratio to (Ci), to give a ‘real cell population’. It should be noted that this calculation is done simply as a matter of convenience and that the reproduction ability of the treated samples was compared to control samples that were treated in the same way over the day period, as shown in FIG. 5. Verification of this method is given by the fact that the cells of the control samples double approximately every day (FIG. 5), as expected for HL-60 cells under the conditions of incubation in the current study.

HL-60 cells [3] = assay: Mechanical fragility test (Burrell wrist action shaker, glass beads), HL-60 cells; format: cell-based
Method: 10 ml borosilicate glass beads in a 125 ml conical flask. 10 ml cell suspension in the presence and absence (control) of various glucopyranosides (HGP, HepGP, MGP, and OGP) in a cell culture medium containing 10% DPBS solution. Shaking was conducted over a period of 30 minutes. Each data point represents ±SD, where n=5.
Mechanical Fragility Test: the effect of glucopyranosides on the mechanical fragility of the cells was determined by inducing mechanical shear stress to a cell suspension. This involved placing 10 mL of HL-60 cells in suspension in 125 ml sized screw capped conical flasks containing 10 mL of borosilicate solid-glass beads (Sigma-Aldrich, mean particle diameter of 3 mm), similar to the methods described elsewhere (Carstensen, E. L. et al. 1993; Miller, M. W. et al. 2003). The samples were then shaken in a Burrell wrist action shaker (model number 75, Burrell Scientific, Pittsburgh, Pa.) at 50% power for a duration of 30 minutes. Using this method, up to eight sample solutions could be run at one time. […] In samples containing glucopyranosides, the surfactant was dissolved in 1 ml of DPBS and added to 9 ml of the cell suspension.

HL-525 cells [4] = assay: Sonolysis of HL-525 cells, % cytolysis; format: cell-based; conditions: 5 sec
Method: Conditions: 42 kHz, 50% power, 5 sec, 20° C., % cytolysis ±SD (n=6).
Conditions: 354 kHz, 15 W, 5 sec, 20° C., % cytolysis ±SD (n=6).
Conditions: 614 kHz, 20 W, 5 sec, 20° C., % cytolysis ±SD (n=6).
Conditions: 1057 kHz, 10 W, 5 sec, 20° C., % cytolysis ±SD (n=6).

HL-525 cells [5] = assay: Mechanical fragility of HL-525 cells; format: cell-based; conditions: OGP 3 mM
Method: Conditions: 50% power, 30 min. shaking, 10 mL borosilicate glass beads, 10 mL cell suspension.

various cells = conditions: approximately 7 mM to 30 mM OGP for up to 30 minutes; cited from earlier work
HL-60 cells [6] = assay: Exposure of HL-60 cells to glucopyranosides alone (no ultrasound); conditions: 15 minute exposure at highest concentrations used
Method: Cell experiments were completed within 5 to 10 minutes of adding the glucopyranosides to the cell suspensions, and each data point represents an average ±SEM, where n=5 to 8. […] For this reason, we only studied the effects of MGP, HGP, HepGP and OGP on the ultrasound induced cytolysis of HL-60 cells.

CCCCCCCCO[C@@H]1O[C@H](CO)[C@@H](O)[C@H](O)[C@H]1O [OGP, octyl-β-D-Glucopyranoside]
effect on ultrasound induced cytolysis (% cytolysis) (HL-60 cells [1]; 1.057 MHz (1 MHz), 10 W, 5 s): fully protects
concentration giving complete (approximately 100%) protection from ultrasound induced cytolysis (HL-60 cells [1]; 1.057 MHz (1 MHz), 10 W, 5 s, air exposed): 2 mM
effect on ultrasound induced cytolysis (HL-60 cells [1]; 42 kHz, 50% power, 5 s): very small sonosensitization; also recorded: weak sonosensitizer
effect on ultrasound induced cytolysis (HL-60 cells [1]; 354 kHz, 15 W, 5 s): weak sonosensitizer
cell population protected from cytolysis (HL-60 cells [1]; 614 kHz): 50%
change of protection from cytolysis as frequency is decreased (HL-60 cells [1]; frequency decreased from 1 MHz to 42 kHz): less effective; also recorded: most affected by the frequency of sonolysis
reproductive viability (reproduction fraction) over 24 hours after sonolysis (HL-60 cells [2]): continue to reproduce at the same rate as untreated control samples
protection from mechanical induced cytolysis (HL-60 cells [3]; 30 min shaking, 50% power, HGP 1-10 mM, HepGP 0.1-10 mM, MGP 10-30 mM, OGP 0.3-3 mM): none of the glucopyranosides tested
effect on mechanical destruction of cells (HL-60 cells [3]; OGP 3 mM): no effect
protective effect for HL-525 cells compared to HL-60 cells (HL-525 cells [4]; 1 MHz (1057 kHz), 10 W): different protection effects; also recorded: smaller protective effect
protective effect for HL-525 cells compared to HL-60 cells (HL-525 cells [4]; 614 kHz, 20 W): much less pronounced; also recorded: smaller protective effect
effect on mechanical destruction of cells (HL-525 cells [5]): significant effect on enhancing mechanical destruction
cytolytic effects (various cells): no cytolytic effects observed
effect on reproduction rate of the cells over 120 hours (HL-60 cells [6]): no detrimental effect
